Data taken from ChEMBL document CHEMBL1201862, “PubChem BioAssay data set” (2004).
Structures can show the parent of a compound that is named as a salt. Active and inactive are the calls of the source.

What was measured:
[1] = (§1) Counterscreen for antagonists of the orexin 1 receptor (OX1R; HCRTR1): Fluorescence-based cell-based high throughput dose response assay to identify antagonists of the parental CHO cell line. [Related pubchem assays (depositor defined):AID434989, AID435008, AID463079, AID485270, AID492963, AID492964, AID492965, AID493232, AID504699, AID504701]; assay type: functional
[2] = molecular target: T1, Orexin receptor type 2 (Homo sapiens, UniProt O43614); assay: Counterscreen assay for antagonists of the orexin 1 receptor (OX1R; HCRTR1): Homogeneous Time Resolved Fluorescence (HTRF)-based cell-based dose response assay for antagonists of the orexin 2 receptor (OX2R; HCRTR2), run by assay provider.; assay type: functional
T1 sequence (O43614 whole entry): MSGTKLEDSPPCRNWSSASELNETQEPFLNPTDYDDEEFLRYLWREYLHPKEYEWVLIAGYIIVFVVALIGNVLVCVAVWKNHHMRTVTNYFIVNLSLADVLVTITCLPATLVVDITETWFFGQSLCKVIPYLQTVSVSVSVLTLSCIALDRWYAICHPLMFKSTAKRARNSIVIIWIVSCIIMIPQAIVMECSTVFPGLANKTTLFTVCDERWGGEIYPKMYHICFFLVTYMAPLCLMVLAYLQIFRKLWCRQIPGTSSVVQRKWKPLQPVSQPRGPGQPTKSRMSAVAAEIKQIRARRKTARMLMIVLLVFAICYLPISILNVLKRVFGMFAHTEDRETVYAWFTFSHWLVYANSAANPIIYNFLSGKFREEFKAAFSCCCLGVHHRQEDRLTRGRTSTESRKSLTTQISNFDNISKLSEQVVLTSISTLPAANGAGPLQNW

[3] = molecular target: T2, Orexin/Hypocretin receptor type 1 (Homo sapiens, UniProt O43613); assay: Homogeneous Time Resolved Fluorescence (HTRF)-based cell-based high throughput dose response assay for antagonists of the orexin 1 receptor (OX1R; HCRTR1). [Related pubchem assays (depositor defined):AID434989, AID435008, AID463079, AID485270, AID492963, AID492964, AID492965, AID493232, AID504717, AID504718]; assay type: functional
T2 sequence (O43613 whole entry): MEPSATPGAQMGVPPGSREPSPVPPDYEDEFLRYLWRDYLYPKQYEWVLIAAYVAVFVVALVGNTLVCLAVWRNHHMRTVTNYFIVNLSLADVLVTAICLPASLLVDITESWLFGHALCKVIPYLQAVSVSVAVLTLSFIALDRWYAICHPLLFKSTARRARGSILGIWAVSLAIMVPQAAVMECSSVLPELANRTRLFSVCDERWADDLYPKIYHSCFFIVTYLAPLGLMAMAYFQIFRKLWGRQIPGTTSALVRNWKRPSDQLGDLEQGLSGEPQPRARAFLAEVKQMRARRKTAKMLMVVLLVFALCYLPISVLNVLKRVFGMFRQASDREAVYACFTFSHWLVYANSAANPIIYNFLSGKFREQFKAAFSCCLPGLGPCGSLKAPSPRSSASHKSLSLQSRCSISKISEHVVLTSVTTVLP

[4] = molecular target: T1, Orexin receptor type 2; assay: Counterscreen assay for antagonists of the orexin 1 receptor (OX1R; HCRTR1): Fluorescence-based cell-based dose response assay for antagonists of the orexin 2 receptor (OX2R; HCRTR2), run by assay provider.; assay type: functional
[5] = test system: CHO-K1; assay: as §1, with “Homogeneous time resolved fluorescence (HTRF)-based” for “Fluorescence-based”, “cell-based” for “cell-based high throughput”, “CHO-K1” for “CHO”; assay type: functional; settings: Cricetulus griseus;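 further: potency for inhibition of ATP-stimulated IP1 production as antagonists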
[6] = molecular target: T2, Orexin/Hypocretin receptor type 1; assay: Fluorescence-based cell-based high throughput dose response assay for antagonists of the orexin 1 receptor (OX1R; HCRTR1). [Related pubchem assays (depositor defined):AID434989, AID435008, AID463079, AID485270, AID492963, AID492964, AID492965, AID493232, AID504717, AID504718]; assay type: functional
[7] = molecular target: Photoreceptor-specific nuclear receptor (Homo sapiens, UniProt Q9Y5X4); assay type: functional, cell-based;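 further: CHO-S cells with Gal4-NCOR and VP16-NR2E3 two-hybrid luciferase reporter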
[8] = bead-based luminescence quenchers, dual-tagged ARNT – biochemical, AlphaScreen, cherry-pick, artefact control for ARNT-TACC3 interaction inhibitor project, dose response (AID 651705); assay type: functional;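 further: AlphaScreen bead proximity signal that flags compounds interfering with the detection technology; potency reflects signal decrease which marks the compound as an assay artifact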
[9] = molecular target: T3, High affinity choline transporter 1 (Homo sapiens, UniProt Q9GZV3); assay: human choline transporter blockers, potency – cell-based, 5-point CRC, membrane potential dye, dose response (AID 504840); assay type: functional
T3 sequence (Q9GZV3 whole entry): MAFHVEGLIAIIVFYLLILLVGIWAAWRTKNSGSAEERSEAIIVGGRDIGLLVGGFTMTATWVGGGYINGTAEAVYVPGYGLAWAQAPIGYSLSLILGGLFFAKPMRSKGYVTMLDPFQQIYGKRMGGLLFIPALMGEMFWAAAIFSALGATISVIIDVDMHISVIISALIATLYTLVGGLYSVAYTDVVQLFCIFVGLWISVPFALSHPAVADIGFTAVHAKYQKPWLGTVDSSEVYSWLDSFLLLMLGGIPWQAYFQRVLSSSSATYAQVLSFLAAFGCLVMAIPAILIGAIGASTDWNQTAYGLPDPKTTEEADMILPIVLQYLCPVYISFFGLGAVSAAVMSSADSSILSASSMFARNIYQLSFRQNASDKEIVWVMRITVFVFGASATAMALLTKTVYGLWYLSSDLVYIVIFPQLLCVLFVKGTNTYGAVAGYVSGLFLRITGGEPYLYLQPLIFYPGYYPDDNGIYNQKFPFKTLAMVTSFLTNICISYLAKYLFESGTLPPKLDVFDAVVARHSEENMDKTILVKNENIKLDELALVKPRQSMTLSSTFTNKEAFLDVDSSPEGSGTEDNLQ

[10] = molecular target: T3, High affinity choline transporter 1; assay: human choline transporter blockers, potency – cell-based, 10-point CRC, membrane potential dye, dose response (AID 588401); assay type: functional;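 further: membrane potential dye fluorescence of choline-evoked depolarization via CHT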

Photoreceptor-specific nuclear receptor, sequence (Q9Y5X4 whole entry, the tested form may be a part): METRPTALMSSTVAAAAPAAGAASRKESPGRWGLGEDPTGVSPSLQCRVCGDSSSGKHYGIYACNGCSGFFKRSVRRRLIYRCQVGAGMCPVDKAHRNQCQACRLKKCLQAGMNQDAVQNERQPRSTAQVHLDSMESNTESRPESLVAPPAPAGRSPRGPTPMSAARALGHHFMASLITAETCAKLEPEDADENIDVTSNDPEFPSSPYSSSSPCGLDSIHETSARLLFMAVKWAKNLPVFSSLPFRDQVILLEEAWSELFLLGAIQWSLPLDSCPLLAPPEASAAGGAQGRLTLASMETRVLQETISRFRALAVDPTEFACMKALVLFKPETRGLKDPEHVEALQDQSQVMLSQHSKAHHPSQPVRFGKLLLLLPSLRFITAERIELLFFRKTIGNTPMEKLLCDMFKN

Row | Structure (SMILES) | IC50 [1] | IC50 [2] | IC50 [3] | IC50 [4] | IC50 [5] | IC50 [6] | also measured
1 | c1ccc(N2CCN(c3ncnc4c3oc3ccccc34)CC2)cc1 | 17.7 µM (inactive) | > 50 µM (inactive) | 4.71 µM (active) | > 88.8 µM (inactive) | > 66.3 µM (inactive) | 12.4 µM (inactive) | 
2 | Cc1ccc(N/C(S)=C(\C#N)c2nc3ccccc3s2)cc1 |  |  |  |  |  |  | IC50 [7]: 1.49 µM (active)
3 | Cn1c(-c2ccc3c(c2)OCO3)cnc1N |  |  |  |  |  |  | AC50 [8]: 83.7 µM (active)
4 | CC(C)(C)NCC(O)c1cc(Cl)c(N)c(Cl)c1 (stereo unspecified) [CLENBUTEROL HYDROCHLORIDE] |  |  |  |  |  |  | IC50 [9]: 0.0288 µM (active); IC50 [10]: 0.000897 µM (active)
5 | C=CCSC1=C(C#N)C(c2ccccc2Cl)C(C(=O)c2cccs2)C(O)(C(F)(F)F)N1 (stereo unspecified) | 25 µM (inactive) | 15.2 µM (inactive) | 0.405 µM (active) | 10.3 µM (inactive) | > 66.2 µM (inactive) | 1.62 µM (active) | 
